Article PMC8330735 (Journal of Enzyme Inhibition and Medicinal Chemistry, 2021)

Columns and labels:
ovine COX-1 = molecular target: T1, ovine COX-1 (Ovis aries, UniProt P05979); test: In vitro COX-1 inhibitory assay (colorimetric Cayman kit)
T1 sequence (P05979 25-600): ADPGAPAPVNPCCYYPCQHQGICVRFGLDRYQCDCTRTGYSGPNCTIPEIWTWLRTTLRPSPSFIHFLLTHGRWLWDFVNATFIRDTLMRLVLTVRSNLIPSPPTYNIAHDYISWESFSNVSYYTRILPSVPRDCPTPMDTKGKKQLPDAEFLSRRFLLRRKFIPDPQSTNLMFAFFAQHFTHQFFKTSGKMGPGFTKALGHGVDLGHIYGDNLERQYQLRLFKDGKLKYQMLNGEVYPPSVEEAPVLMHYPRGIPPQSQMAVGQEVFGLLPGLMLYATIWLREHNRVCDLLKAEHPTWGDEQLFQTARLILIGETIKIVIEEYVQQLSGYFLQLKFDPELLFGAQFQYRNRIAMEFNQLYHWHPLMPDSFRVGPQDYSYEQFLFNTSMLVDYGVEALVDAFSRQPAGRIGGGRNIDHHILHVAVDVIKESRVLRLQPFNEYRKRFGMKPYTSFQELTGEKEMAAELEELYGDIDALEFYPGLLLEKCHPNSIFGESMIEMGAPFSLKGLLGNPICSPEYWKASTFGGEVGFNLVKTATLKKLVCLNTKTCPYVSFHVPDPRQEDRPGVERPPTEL
Description: (§1) All the newly synthesised compounds were tested for their ability to inhibit COX-1 and COX-2 enzymes using a screening assay method.

human recombinant COX-2 = molecular target: T2, human recombinant COX-2 (Homo sapiens, UniProt P35354); test: In vitro COX-2 inhibitory assay (colorimetric Cayman kit); conditions: for Selectivity Index (SI): COX-1 IC50/COX-2 IC50
T2 sequence (P35354 18-604): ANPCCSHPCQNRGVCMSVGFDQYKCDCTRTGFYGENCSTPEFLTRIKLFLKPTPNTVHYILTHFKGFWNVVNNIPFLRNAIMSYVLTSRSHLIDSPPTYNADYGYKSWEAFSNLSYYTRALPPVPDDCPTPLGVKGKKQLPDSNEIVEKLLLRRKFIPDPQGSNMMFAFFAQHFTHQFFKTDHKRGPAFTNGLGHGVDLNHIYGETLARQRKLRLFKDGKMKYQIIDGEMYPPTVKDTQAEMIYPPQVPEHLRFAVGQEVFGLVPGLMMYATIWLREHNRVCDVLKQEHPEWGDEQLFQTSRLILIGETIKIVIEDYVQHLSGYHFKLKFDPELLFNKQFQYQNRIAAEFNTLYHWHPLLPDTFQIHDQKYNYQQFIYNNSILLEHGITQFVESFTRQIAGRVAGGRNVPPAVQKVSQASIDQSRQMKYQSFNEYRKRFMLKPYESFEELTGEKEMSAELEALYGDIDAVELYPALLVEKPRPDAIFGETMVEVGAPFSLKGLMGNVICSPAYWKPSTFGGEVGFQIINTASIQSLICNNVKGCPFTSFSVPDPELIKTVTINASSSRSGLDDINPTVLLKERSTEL
Description: as §1

[1] = tested on: stomach ulceration in rats; conditions: rat, in vivo, 2 days
Description: The rats from the previous experiment were fasted for 12 h., followed by the administration of additional doses of the selected compounds or the two references for two consecutive days. Six hrs after the last treatment, the animals were sacrificed, and their stomachs were removed, washed with saline solution (0.9%) and examined for ulceration using a magnifying lens. The ulcer scores were estimated according to the method prescribed by Kulkarni and as detailed in our previous studies[36–38]. The following scores were individually assigned to each lesion: normal coloured stomach, 0; red colouration, 0.5; spot ulcers, 1; haemorrhagic streaks, 1.5; ulcer >3 but <5 mm, 2; and ulcers >5 mm, 3.

[2] = tested on: carrageenan-induced rat paw oedema; test: Carrageenan-induced rat paw oedema test; format: in vivo; conditions: compounds and celecoxib 50 mg/kg, ibuprofen and indomethacin 20 mg/kg; for Mean oedema thickness 1h: 1 h after carrageenan; for Mean oedema thickness 1h / Mean oedema thickness 2h / Mean oedema thickness 3h / Mean oedema thickness 4h / Mean oedema thickness 5h / Mean oedema thickness 24h / Mean oedema thickness 0h: mean ± SEM, n = 5; for Mean oedema thickness 2h: 2 h after carrageenan; for Mean oedema thickness 3h: 3 h after carrageenan; for Mean oedema thickness 4h: 4 h after carrageenan; for Mean oedema thickness 5h: 5 h after carrageenan; for Mean oedema thickness 24h: 24 h after carrageenan; for Mean oedema thickness 0h: before carrageenan (0 h); for Average oedema inhibition%: from area under the curve of all time points
Description: The rats were divided into nine groups (n = 5/group). All tested compounds were suspended in 1% Tween-80. Group 1, controls, were given the vehicle (1% Tween80, 10 ml/kg). […] The rats were given the drugs 1 h before the injection of carrageenan solution (1% in 0.9% NaCl, 0.1 ml) (Sigma Aldrich, USA) in the sub-planter tissue of the right hind paw. The paw thickness (mm) was measured using a calliper before (0 h) and after carrageenan injection at 1, 2, 3, 4, 5 and 24 h. The inhibition of oedema thickness was calculated using the following formula (control– drug/control) × 100.

[3] = tested on: NO production in LPS-activated RAW 264.7 macrophages; test: NO production in LPS-activated RAW 264.7 macrophages (DAF-FM); format: cell-based; conditions: Mus musculus, RAW264.7; LPS 1 µg/mL activated RAW 264.7
Description: HCA7 colorectal cancer cell line was obtained from Sigma. […] Louis, MO) containing 10% heat-inactivated foetal bovine serum (HI-FBS) (Gibco, USA), 100 μg/mL streptomycin (Invitrogen, USA), and […] penicillin (Invitrogen, USA)[40]. HCA7 and RAW 264.7 cells were cultured in Dulbecco's minimal essential media (DMEM, Invitrogen) containing 10% HI-FBS, sodium pyruvate (1 mM), penicillin ([…]), and streptomycin (100 mg/m)[41]^,[42]. […] Molecular Probes, USA). Briefly, RAW 264.7 cells were cultured in black 96-well plates (200,000 cells/mL, 100 µl/well) for 24 h. […] The fluorescence intensity, which is directly proportional to NO levels, was quantified, as detailed in our previous study. IC50 values were calculated from the dose–response curves.

[4] = tested on: ROS production in LPS-activated RAW 264.7 macrophages; test: ROS production in LPS-activated RAW 264.7 macrophages (DCFH-DA); format: cell-based; conditions: Mus musculus, RAW264.7; LPS 1 µg/mL activated RAW 264.7
Description: HCA7 colorectal cancer cell line was obtained from Sigma. […] Louis, MO) containing 10% heat-inactivated foetal bovine serum (HI-FBS) (Gibco, USA), 100 μg/mL streptomycin (Invitrogen, USA), and […] penicillin (Invitrogen, USA)[40]. HCA7 and RAW 264.7 cells were cultured in Dulbecco's minimal essential media (DMEM, Invitrogen) containing 10% HI-FBS, sodium pyruvate (1 mM), penicillin ([…]), and streptomycin (100 mg/m)[41]^,[42]. […] The cells were cultured, incubated with the different test compounds, and activated with LPS (1 µg/mL) as detailed above. […] IC50 values were calculated from the dose–response curves.

IC50 (ovine COX-1)	IC50 (human recombinant COX-2)	Selectivity Index (SI) (human recombinant COX-2)	melting point	SMILES	further results
11.2 ± 0.13 µM	0.03 µM	373.67	83 to 85 °C	COc1ccc(C2N(NC(=O)Cc3c[nH]c4ccccc34)C(=O)c3ccccc3N2C)cc1 (centres unmarked) [4c, 2-(1 h-indol-3-yl)-N-(2-(4-methoxyphenyl)-1-methyl-4-oxo-1,4-dihydroquinazolin-3(2H)-yl)acetamide]	–
12.76 ± 0.1 µM	0.05 ± 0.13 µM	255.02	85 to 89 °C	CC(C)Cc1ccc(C(C)C(=O)NN2C(=O)c3ccccc3N(C)C2c2ccccc2)cc1 (centres unmarked) [7a, 2-(4-Isobutylphenyl)-N-(1-methyl-4-oxo-2-phenyl-1,4-dihydroquinazolin-3(2H)-yl) propenamide]	–
13.35 ± 0.1 µM	0.04 µM	333.75	120 to 125 °C	CC(C)Cc1ccc(C(C)C(=O)NN2C(=O)c3ccccc3N(C)C2c2ccc(Cl)cc2)cc1 (centres unmarked) [7b, N-(2-(4-chlorophenyl)-1-methyl-4-oxo-1,4-dihydroquinazolin-3(2H)-yl)-2–(4-isobutylphenyl) propenamide]	–
14.4 ± 0.16 µM	0.04 µM	359.25	92 to 95 °C	COc1ccc(C2N(NC(=O)C(C)c3ccc(CC(C)C)cc3)C(=O)c3ccccc3N2C)cc1 (centres unmarked) [7d, 2-(4-Isobutylphenyl)-N-(2-(4-methoxyphenyl)-1-methyl-4-oxo-1,4-dihydroquinazolin-3(2H)-yl) propenamide]	–
11.8 ± 0.15 µM	0.04 µM	296.25	90 to 95 °C	CC(C)Cc1ccc(C(C)C(=O)NN2C(=O)c3ccccc3N(C)C2c2ccc(F)cc2)cc1 (centres unmarked) [7e]	–
10.2 ± 0.14 µM	0.04 µM	254.75	208 to 213 °C	NNC(=O)CSc1nc2ccccc2c(=O)n1NC(=O)c1ccccc1 [13a, N-(2-((2-hydrazinyl-2-oxoethyl)thio)-4-oxoquinazolin-3(4H)-yl)benzamide]	–
10.9 ± 0.2 µM	0.03 µM	362.00	194 to 198 °C	O=C(CSc1nc2ccccc2c(=O)n1NC(=O)c1ccccc1)NNC(=O)c1ccccc1 [14a, N-(2-((2-(2-benzoylhydrazinyl)-2-oxoethyl)thio)-4-oxoquinazolin-3(4H)-yl)benzamide]	–
12.98 ± 0.12 µM	0.04 µM	324.5	215 to 220 °C	O=C(CSc1nc2ccccc2c(=O)n1NC(=O)c1ccccc1)NNC(=O)c1ccc(Cl)cc1 [14b, N-(2-((2-(2-(4-chlorobenzoyl)hydrazinyl)-2-oxoethyl)thio)-4 oxoquinazolin-3(4H)-yl)benzamide]	–
12.56 ± 0.11 µM	0.04 µM	314.00	221 to 226 °C	O=C(CSc1nc2ccccc2c(=O)n1NC(=O)Cc1ccccc1)NNC(=O)c1ccc(Cl)cc1 [14d, N-(2-((2-(2-(4-chlorobenzoyl)hydrazinyl)-2-oxoethyl)thio)-4-oxoquinazolin-3(4H)-yl)-2-phenylacetamide]	–
–	–	–	–	CC(C)Cc1ccc(C(C)C(=O)O)cc1 (centres unmarked) [Ibuprofen, reference compound]	Average Ulcer number [1]: 3.8; Lesion Incidence (%) [1]: 100%; Number of rats with ulcer [1]: 5; Mean oedema thickness 1h [2]: 1.76 ± 0.07 mm; Mean oedema thickness 2h [2]: 2.00 ± 0.15 mm; Mean oedema thickness 3h [2]: 1.74 ± 0.08 mm; Mean oedema thickness 4h [2]: 1.23 ± 0.16 mm; Mean oedema thickness 5h [2]: 1.36 ± 0.18 mm; Mean oedema thickness 24h [2]: 0.48 ± 0.15 mm; Mean oedema thickness 0h [2]: 0.00 ± 0.00 mm; Average oedema inhibition% [2]: 47.18%; IC50 [3]: 18.8 ± 1.19 µM; IC50 [4]: 36.4 ± 1.45 µM
–	–	–	–	COc1ccc2c(c1)c(CC(=O)O)c(C)n2C(=O)c1ccc(Cl)cc1 [Indomethacin, reference compound]	Average Ulcer number [1]: 12.4; Lesion Incidence (%) [1]: 100%; Number of rats with ulcer [1]: 5; Mean oedema thickness 1h [2]: 2.00 ± 0.14 mm; Mean oedema thickness 2h [2]: 2.21 ± 0.12 mm; Mean oedema thickness 3h [2]: 1.82 ± 0.13 mm; Mean oedema thickness 4h [2]: 2.02 ± 0.16 mm; Mean oedema thickness 5h [2]: 1.87 ± 0.18 mm; Mean oedema thickness 24h [2]: 0.49 ± 0.10 mm; Mean oedema thickness 0h [2]: 0.00 ± 0.00 mm; Average oedema inhibition% [2]: 33.81%; IC50 [3]: 25.3 ± 1.01 µM; IC50 [4]: 68.9 ± 1.29 µM
